# Source: the supplement of paper PMC11208160
# Test: recombinant barcode read abundance after kanamycin selection (control-corrected) (log10(CPM+1)); higher = more efficient recombination; sequences stand for … in AGTGCAGAGAAAATCGGCCAGTTTTCTCTGCCTGCAGTCCGCATGCCGT…AGATTTATGCAGCGGACTGCCTTTCTCCCAAAGTGATAAACCGGACAGTATCATGGACCGGTTTTCCCGGTAATCCGTATTTGCAAGGTTGGTTTCACT; site = the 11-nt target
# Procedure, shortened: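 Two replicates per condition were plated: chloramphenicol/ampicillin LB agar for the control, and chloramphenicol/ampicillin/kanamycin with 0.1 mM IPTG for selection. The pooled E. coli screen behind them paired targets with IS621 bridge RNA target-binding loops. Recombination efficiency is expressed from averaged, control-corrected barcode counts per million at recombinant junctions, as log10(CPM+1).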
# 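Further: IS621 recombinase and bridge RNA in Escherichia coli cells.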
row,Sequence,recombinant barcode read abundance (log10)
1,GCTCCATCTTGGGTTCTAACCTGTTGCCT (site GTTCCATCTAG),0.291
2,GCTCCTCCTTGGGTTCTAACCTGTTGCAT (site ATAGAGTCTCG),0.0486
3,GCTCCTCCTTGGGTTCTAACCTGTTGCAT (site GCTCCTCCTAT),1.15
4,GCTCGAACTTGGGTTCTAACCTGTTGCCT (site GCACGAACTAG),0.46
5,GCTCGAACTTGGGTTCTAACCTGTTGCCT (site GCCCGAACTAG),0.138
6,GCTCGAACTTGGGTTCTAACCTGTTGCCT (site GCGCGAACTAG),0.00752
7,GCTCGAACTTGGGTTCTAACCTGTTGCCT (site GCTCGAACTAG),0.38
8,GCTCGTGCTTGGGTTCTAACCTGTTGCCT (site GCACGTGCTAG),0.69
9,GCTCGTGCTTGGGTTCTAACCTGTTGCCT (site GCCCGTGCTAG),0.278
10,GCTCGTGCTTGGGTTCTAACCTGTTGCCT (site GCGCGTGCTAG),0.238
11,GCTCGTGCTTGGGTTCTAACCTGTTGCCT (site GCTCGTGCTAG),1.1
12,GCTGAGGCTTGGGTTCTAACCTGTTGCCA (site CTCTGCTCTGA),0.165
13,GCTGAGGCTTGGGTTCTAACCTGTTGCCA (site GCTGAGGCTTG),0.636
14,GCTGAGTCTTGGGTTCTAACCTGTTGCTA (site AGGCCCACTAT),0.0625
15,GCTGAGTCTTGGGTTCTAACCTGTTGCTA (site GCTGAGTCTTA),2.08
16,GCTGCTCCTTGGGTTCTAACCTGTTGCGT (site GCGGGTCCTAC),0.0749
17,GCTGCTCCTTGGGTTCTAACCTGTTGCGT (site GCTGCTCCTAC),1.82
18,GCTGGGCCTTGGGTTCTAACCTGTTGCGA (site GATGGGCCTAC),0.0848
19,GCTGGGCCTTGGGTTCTAACCTGTTGCGA (site GCTGGGCCTTC),2.17
20,GCTGTATCTTGGGTTCTAACCTGTTGCCT (site ACTGTATCTAG),0.288
21,GCTGTATCTTGGGTTCTAACCTGTTGCCT (site CCTGTATCTAG),0.163
22,GCTGTATCTTGGGTTCTAACCTGTTGCCT (site GCTGTATCTAG),0.612

row,Sequence,recombinant barcode read abundance (log10)
1,GCTGTATCTTGGGTTCTAACCTGTTGCCT (site TCTGTATCTAG),0.0648
2,GCTTCTTCTTGGGTTCTAACCTGTTGCCT (site GATTCTTCTAG),0.398
3,GCTTCTTCTTGGGTTCTAACCTGTTGCCT (site GCTTCTTCTAG),0.0876
4,GCTTCTTCTTGGGTTCTAACCTGTTGCCT (site GGTTCTTCTAG),0.0632
5,GCTTCTTCTTGGGTTCTAACCTGTTGCCT (site GTTTCTTCTAG),0.0974
6,GCTTGAGCTTGGGTTCTAACCTGTTGCCG (site CCTTGAGCTCA),0.0954
7,GCTTGAGCTTGGGTTCTAACCTGTTGCCG (site GCTTGAGCTCG),0.344
8,GCTTGAGCTTGGGTTCTAACCTGTTGCCT (site GCATGAGCTAG),0.421
9,GCTTGAGCTTGGGTTCTAACCTGTTGCCT (site GCCTGAGCTAG),0.158
10,GCTTGAGCTTGGGTTCTAACCTGTTGCCT (site GCGTGAGCTAG),0.139
11,GCTTGAGCTTGGGTTCTAACCTGTTGCCT (site GCTTGAGCTAG),0.589
12,GCTTGGACTTGGGTTCTAACCTGTTGCCT (site GCTTGGACTAG),0.467
13,GCTTGGACTTGGGTTCTAACCTGTTGCCT (site GCTTTGACTAG),0.0492
14,GCTTGTTCTTGGGTTCTAACCTGTTGCCT (site ACTTGTTCTAG),0.0443
15,GCTTGTTCTTGGGTTCTAACCTGTTGCCT (site CCTTGTTCTAG),0.501
16,GCTTGTTCTTGGGTTCTAACCTGTTGCCT (site GCTTGTTCTAG),0.233
17,GCTTGTTCTTGGGTTCTAACCTGTTGCCT (site TCTTGTTCTAG),0.11
18,GCTTTACCTTGGGTTCTAACCTGTTGCCT (site ACTTTACCTAG),0.0836
19,GCTTTACCTTGGGTTCTAACCTGTTGCCT (site CCTTTACCTAG),0.019
20,GCTTTACCTTGGGTTCTAACCTGTTGCCT (site GCTTTACCTAG),0.456
21,GCTTTACCTTGGGTTCTAACCTGTTGCCT (site TCTTTACCTAG),0.0534
22,GCTTTGCCTTGGGTTCTAACCTGTTGCCT (site ACTTTCCCTAG),0.0475

row,Sequence,recombinant barcode read abundance (log10)
1,GCTTTGCCTTGGGTTCTAACCTGTTGCCT (site GCTTTGCCTAG),0.409
2,GGAACGTCTTGGGTTCTAACCTGTTGCTT (site GGAACCTCTAA),0.0353
3,GGAACGTCTTGGGTTCTAACCTGTTGCTT (site GGAACGTCTAA),1.06
4,GGAACTACTTGGGTTCTAACCTGTTGCAC (site GGAACTACTGT),0.838
5,GGAACTACTTGGGTTCTAACCTGTTGCAC (site TTGCTAGCTCC),0.114
6,GGAAGCCCTTGGGTTCTAACCTGTTGCTA (site AACTAAGCTAG),0.0242
7,GGAAGCCCTTGGGTTCTAACCTGTTGCTA (site GGAAGCCCTTA),0.694
8,GGAAGTTCTTGGGTTCTAACCTGTTGCCT (site GAAAGTTCTAG),0.0496
9,GGAAGTTCTTGGGTTCTAACCTGTTGCCT (site GCAAGTTCTAG),0.0862
10,GGAAGTTCTTGGGTTCTAACCTGTTGCCT (site GGAAGTTCTAG),0.732
11,GGAAGTTCTTGGGTTCTAACCTGTTGCCT (site GTAAGTTCTAG),0.754
12,GGAATACCTTGGGTTCTAACCTGTTGCCT (site GGAATACCTAG),1.36
13,GGAATACCTTGGGTTCTAACCTGTTGCCT (site GGAATCCCTAG),0.157
14,GGAATACCTTGGGTTCTAACCTGTTGCCT (site GGAATGCCTAG),0.0994
15,GGAATACCTTGGGTTCTAACCTGTTGCCT (site GGAATTCCTAG),0.0368
16,GGAATGCCTTGGGTTCTAACCTGTTGCCT (site GGAATACCTAG),0.79
17,GGAATGCCTTGGGTTCTAACCTGTTGCCT (site GGAATCCCTAG),0.0574
18,GGAATGCCTTGGGTTCTAACCTGTTGCCT (site GGAATGCCTAG),0.975
19,GGAATGCCTTGGGTTCTAACCTGTTGCCT (site GGAATTCCTAG),0.0966
20,GGAATGTCTTGGGTTCTAACCTGTTGCCT (site GAAATGTCTAG),0.344
21,GGAATGTCTTGGGTTCTAACCTGTTGCCT (site GCAATGTCTAG),0.0847
22,GGAATGTCTTGGGTTCTAACCTGTTGCCT (site GGAATGTCTAG),2.09

row,Sequence,recombinant barcode read abundance (log10)
1,GGAATGTCTTGGGTTCTAACCTGTTGCCT (site GTAATGTCTAG),0.0368
2,GGAATTCCTTGGGTTCTAACCTGTTGCCT (site GGAATACCTAG),0.129
3,GGAATTCCTTGGGTTCTAACCTGTTGCCT (site GGAATCCCTAG),0
4,GGAATTCCTTGGGTTCTAACCTGTTGCCT (site GGAATGCCTAG),0.0669
5,GGAATTCCTTGGGTTCTAACCTGTTGCCT (site GGAATTCCTAG),0.0376
6,GGACAATCTTGGGTTCTAACCTGTTGCCT (site GGACAATCTAG),1.53
7,GGACAATCTTGGGTTCTAACCTGTTGCCT (site GGACCATCTAG),0.174
8,GGACAATCTTGGGTTCTAACCTGTTGCCT (site GGACGATCTAG),0.376
9,GGACAATCTTGGGTTCTAACCTGTTGCCT (site GGACTATCTAG),0.0608
10,GGACATGCTTGGGTTCTAACCTGTTGCGT (site CGACATACTAC),0.219
11,GGACATGCTTGGGTTCTAACCTGTTGCGT (site GGACATGCTAC),2.7
12,GGACCGCCTTGGGTTCTAACCTGTTGCCT (site CGATCGCCTAG),0.129
13,GGACCGCCTTGGGTTCTAACCTGTTGCCT (site GGACCGCCTAG),0.626
14,GGACGAGCTTGGGTTCTAACCTGTTGCTG (site ATCTATACTAG),0.0905
15,GGACGAGCTTGGGTTCTAACCTGTTGCTG (site GGACGAGCTCA),2.46
16,GGACGGACTTGGGTTCTAACCTGTTGCCA (site GGACGGACTTG),1.68
17,GGACGGACTTGGGTTCTAACCTGTTGCCA (site GGTCGGACTTG),0.417
18,GGACTATCTTGGGTTCTAACCTGTTGCCT (site GGACAATCTAG),0.104
19,GGACTATCTTGGGTTCTAACCTGTTGCCT (site GGACCATCTAG),0.297
20,GGACTATCTTGGGTTCTAACCTGTTGCCT (site GGACGATCTAG),0.011
